Laboratory results as given in patent US6583179B2, “Substituted aminoalkylamide derivatives as antagonists of follicle stimulating hormone” (Ortho-McNeil Pharmaceutical, Inc., priority 1999, dated 2003).

Target: T1, human FSH receptor (Homo sapiens, UniProt P23945)
T1 construct: expressed in transfected cells; host or cells: Chinese Hamster Ovary cells (K-1; ATCC), line rhFSHR-cLUC
T1 sequence (P23945 18-695): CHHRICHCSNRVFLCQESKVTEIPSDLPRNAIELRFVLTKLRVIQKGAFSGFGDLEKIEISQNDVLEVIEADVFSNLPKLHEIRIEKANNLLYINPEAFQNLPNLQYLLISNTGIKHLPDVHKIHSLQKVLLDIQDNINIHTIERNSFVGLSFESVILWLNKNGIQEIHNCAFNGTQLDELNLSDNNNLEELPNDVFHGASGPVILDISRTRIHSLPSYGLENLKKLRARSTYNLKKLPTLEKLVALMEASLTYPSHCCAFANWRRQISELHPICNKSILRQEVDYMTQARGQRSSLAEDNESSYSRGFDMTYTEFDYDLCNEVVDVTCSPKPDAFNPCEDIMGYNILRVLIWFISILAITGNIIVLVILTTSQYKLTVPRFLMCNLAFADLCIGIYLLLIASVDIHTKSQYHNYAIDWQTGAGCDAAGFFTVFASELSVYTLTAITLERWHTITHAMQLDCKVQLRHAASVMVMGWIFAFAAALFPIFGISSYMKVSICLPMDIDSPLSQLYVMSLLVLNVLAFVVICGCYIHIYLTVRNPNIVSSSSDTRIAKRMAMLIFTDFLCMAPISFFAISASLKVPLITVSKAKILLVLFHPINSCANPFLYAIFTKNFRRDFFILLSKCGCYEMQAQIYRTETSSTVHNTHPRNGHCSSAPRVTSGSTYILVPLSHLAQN
Assay: hFSHR CHO cAMP assay (rhFSHR-cLUC cells, FSH-stimulated cAMP, radioimmunoassay)
Assay type: cell-based
Details: inhibition of cAMP produced by EC70 dose of FSH (4.85 nM); maximum concentration 50 μM
From the text: Minimum Essential Medium-Alpha (MEM-alpha), fetal bovine serum (FBS), penicillin, streptomycin, geneticin, trypsin-EDTA, Hanks' Balanced Salt Solution (no Calcium chloride, Magnesium chloride, Magnesium sulfate, or phenol red; Ca-Mg free HBSS) were purchased from Gibco BRL (Gaithersburg, Md.). The cells used for the FSH bioassay (rhFSHR-cLUC) were Chinese Hamster Ovary cells (K-1; ATCC) stably transformed with human FSH receptor (pSVK-FSHr) and a cAMP luciferase reporter gene (responsive CGα-180LUC). Follicle Stimulating Hormone (Metrodin; Fertinex) was purchased from Serono, Ltd. (Norwell, Mass.).
The rhFSHR-cLUC cell cultures were maintained in MEM-Alpha supplemented with 10% heat-inactivated FBS (HIFBS), 100 U/ml penicillin, 100 μg/mL streptomycin, and included 0.1 g/L geneticin for stable cell selection.
Forty-eight hours after the cells were plated in sterile 96-well culture plates (Corning, Corning, N.Y.) the spent media was removed and 50 μl assay media (modified growth media with 2% HIFBS) containing 2 mM IBMX (3-isobutyl-1-methyl-xanthine) was added to the cells. Compounds (25 μl) in the appropriate concentration were added followed 5 minutes later by an EC70 dose of FSH (25 μl; 160 ng/ml; 4.85 nM). After 10 minutes @ 22.5° C. (room temperature) the reaction was terminated by addition of 25 μL 0.5 N hydrochloric acid to each well. The amount of cAMP produced was measured by radioimmunoassay in a FlashPlate (DuPont, Boston, Mass.). To each flash plate 60 μL flash plate buffer was added followed by 40 μL acidified cell sample or cAMP standard, followed with the addition of 100 μl ^125l-cAMP trace. The FlashPlates were sealed, incubated overnight @ room temperature, and counted in a Packard TopCount (Packard Instrument Co., Meriden, Conn.). The cAMP radioimmunoassay results were calculated using DPM conversion and log-logit transformation of % binding (Excel program).
Test compounds were solubilized in 30% dimethyl sulfoxide (DMSO) at a concentration of 10 mM before diluting to appropriate concentrations in assay medium. The final DMSO concentration in the treated cells and in the control cells was 0.75%.
For individual experiments, a set of samples were tested including a vehicle control (assay buffer), a reference compound (hFSH) at a range of concentrations designed to elicit a minimal to maximal response, and several concentrations of test compounds together with an EC70 concentration of standard (hFSH challenge). Each compound was performed in duplicates for the primary evaluation and quadruplicates for the dose-ranging experiments. The cAMP radioimmunoassay raw data (pmol) were calculated to provide average pmol cAMP produced/ml and the percent inhibition was calculated as shown below.
% Inh=[1−(Avg.pmoltest compound+standard)/(Avg.pmolstandard)]×100
EC50 values were calculated from an analysis of the concentration-inhibition data using a linear analysis of the data transformed to a log-logit format.

EC50 [nM]	SMILES
9790	COc1ccccc1CCN(CC(=O)N1CCNCC1)S(=O)(=O)c1ccc(-c2ccccc2C)cc1 [Compound 151]
≥ 50000	COc1ccccc1CN(CC(=O)N1CCNCC1)S(=O)(=O)c1ccc(-c2ccccc2C)cc1 [Compound 174]
70	C[C@H](CN(CC(=O)NCc1ccc(CN)cc1)S(=O)(=O)c1ccc(-c2cccc(F)c2)cc1)c1ccccc1 [Compound 213]
1200	COc1ccccc1CCN(CC(=O)NCc1ccc(CN)cc1)S(=O)(=O)c1ccccc1-c1ccccc1C [Compound 218]
5630	COc1ccccc1CCN(CC(=O)NCc1ccc(CN)cc1)S(=O)(=O)c1ccc(-c2cccs2)cc1 [Compound 245]
50	Cc1ccccc1-c1ccc(S(=O)(=O)N(CC(=O)NCc2ccc(CN)cc2)CC(C)c2ccccc2)cc1 (stereo not drawn) [Compound 311]
2570	Cc1ccccc1-c1ccc(S(=O)(=O)N(CC(=O)NCc2ccc(CN)cc2)C2CC2c2ccccc2)cc1 (stereo not drawn) [Compound 320]
980	COc1ccccc1CCN(CC(=O)NCC1CCCC(CN)C1)S(=O)(=O)c1ccc(-c2ccccc2C)cc1 (stereo not drawn) [Compound 336]
310	COc1ccccc1CCN(CC(=O)NCC1CCCC(CN)C1)S(=O)(=O)c1ccc(-c2ccccc2Cl)cc1 (stereo not drawn) [Compound 337]
440	COc1ccccc1CCN(CC(=O)NCC1CCCC(CN)C1)S(=O)(=O)c1ccc(-c2ccccc2OC)cc1 (stereo not drawn) [Compound 338]
1100	COc1ccccc1CCN(CC(=O)NCC1CCCC(CN)C1)S(=O)(=O)c1ccc(-c2ccc(Cl)cc2Cl)cc1 (stereo not drawn) [Compound 339]
650	COc1ccccc1CN(CC(=O)NCC1CCCC(CN)C1)S(=O)(=O)c1ccc(-c2ccccc2C)cc1 (stereo not drawn) [Compound 340]
570	COc1ccccc1CN(CC(=O)NCC1CCCC(CN)C1)S(=O)(=O)c1ccc(-c2ccccc2Cl)cc1 (stereo not drawn) [Compound 341]
530	COc1ccccc1CN(CC(=O)NCC1CCCC(CN)C1)S(=O)(=O)c1ccc(-c2ccc(Cl)cc2Cl)cc1 (stereo not drawn) [Compound 343]
700	COc1ccccc1CCN(CC(=O)NCc1cccc(CN)c1)S(=O)(=O)c1ccc(-c2ccccc2C)cc1 [Compound 344]
110	COc1ccccc1CCN(CC(=O)NCCCCCCN)S(=O)(=O)c1ccc(-c2ccccc2C)cc1 [Compound 352]
140	COc1ccccc1CCN(CC(=O)NCCCCCCN)S(=O)(=O)c1ccc(-c2ccccc2Cl)cc1 [Compound 353]
400	COc1ccccc1CCN(CC(=O)NCCCCCCN)S(=O)(=O)c1ccc(-c2ccc(Cl)cc2Cl)cc1 [Compound 355]
1020	C[C@@H](CN(CC(=O)N1CCC(C2CCNCC2)CC1)S(=O)(=O)c1ccc(-c2ccccc2Cl)cc1)c1ccccc1 [Compound 367]
190	Cc1ccccc1-c1ccc(S(=O)(=O)N(CC(=O)NCC2CCC(CN)CC2)C[C@H](C)c2ccccc2)cc1 (stereo partly drawn) [Compound 372]

EC50 [nM]	SMILES
≥ 50000	C[C@@H](CN(CC(=O)NCCCCCN)S(=O)(=O)c1ccc(-c2ccccc2Cl)cc1)c1ccccc1 [Compound 379]
1200	C[C@@H](CN(CC(=O)NCCCCCN)S(=O)(=O)c1ccc(-c2cccc(F)c2)cc1)c1ccccc1 [Compound 380]
330	C[C@@H](CN(CC(=O)NCC1CCCC(CN)C1)S(=O)(=O)c1ccc(-c2ccccc2Cl)cc1)c1ccccc1 (stereo partly drawn) [Compound 385]
1170	C[C@@H](CN(CC(=O)NCC1CCCC(CN)C1)S(=O)(=O)c1ccc(-c2cccc(F)c2)cc1)c1ccccc1 (stereo partly drawn) [Compound 386]
900	C[C@H](CN(CC(=O)NCC1CCCC(CN)C1)S(=O)(=O)c1ccc(-c2ccccc2Cl)cc1)c1ccccc1 (stereo partly drawn) [Compound 388]
230	Cc1ccccc1-c1ccc(S(=O)(=O)N(CC(=O)NCc2cccc(CN)c2)C[C@H](C)c2ccccc2)cc1 [Compound 390]
50	C[C@@H](CN(CC(=O)NCCCCCCN)S(=O)(=O)c1ccc(-c2ccccc2Cl)cc1)c1ccccc1 [Compound 397]
1360	C[C@H](CN(CC(=O)NCCCCCCN)S(=O)(=O)c1ccc(-c2cccc(F)c2)cc1)c1ccccc1 [Compound 401]
50000	C[C@@H](CN(CC(=O)NCc1ccc(CN(C)C)cc1)S(=O)(=O)c1ccc(-c2ccccc2Cl)cc1)c1ccccc1 [Compound 471]
> 50000	CCN(CC)Cc1ccc(CNC(=O)CN(CC(C)c2ccccc2)S(=O)(=O)c2ccc(-c3ccccc3Cl)cc2)cc1 (stereo not drawn) [Compound 472]
> 50000	CC(=O)NCc1ccc(CNC(=O)CN(C[C@H](C)c2ccccc2)S(=O)(=O)c2ccc(-c3ccccc3Cl)cc2)cc1 [Compound 473]
> 50000	Cc1ccccc1-c1ccc(S(=O)(=O)N(CC(=O)NCc2ccc(CN(C)C)cc2)C[C@@H](C)c2ccccc2)cc1 [Compound 474]
9460	CCN(CC)Cc1ccc(CNC(=O)CN(C[C@@H](C)c2ccccc2)S(=O)(=O)c2ccc(-c3ccccc3C)cc2)cc1 [Compound 475]
≥ 50000	CC(=O)NCc1ccc(CNC(=O)CN(CC(C)c2ccccc2)S(=O)(=O)c2ccc(-c3ccccc3C)cc2)cc1 (stereo not drawn) [Compound 476]
7700	C[C@H](CN(CC(=O)NCc1ccc(CN)cc1)C(=O)c1ccc(-c2ccccc2Cl)cc1)c1ccccc1 [Compound 477]
4040	CC(CN(CC(=O)NC1CCC(CC2CCC(N)CC2)CC1)S(=O)(=O)c1ccc(-c2ccccc2Cl)cc1)c1ccccc1 (stereo not drawn) [Compound 497]
300	COc1ccc(CCN(CC(=O)NCCCCCCN)S(=O)(=O)c2ccc(-c3ccccc3Cl)cc2)cc1 [Compound 502]
1930	C[C@@H](CN(CC(=O)NCc1ccc(CN)cc1)S(=O)(=O)c1ccc(C(C)(C)C)cc1)c1ccccc1 [Compound 555]
2600	C[C@@H](CN(CC(=O)NCc1ccc(CN)cc1)C(=O)Nc1ccc(-c2ccccc2)cc1)c1ccccc1 [Compound 590]
